The record followed here is patent US9884063B2, “Amido-substituted azole compounds” (Bayer Pharma Aktiengesellschaft, priority 2014, dated 2018).

This experiment has as its target T1, TNKS1 (Homo sapiens, UniProt O95271).
T1 sequence (O95271 1-1327): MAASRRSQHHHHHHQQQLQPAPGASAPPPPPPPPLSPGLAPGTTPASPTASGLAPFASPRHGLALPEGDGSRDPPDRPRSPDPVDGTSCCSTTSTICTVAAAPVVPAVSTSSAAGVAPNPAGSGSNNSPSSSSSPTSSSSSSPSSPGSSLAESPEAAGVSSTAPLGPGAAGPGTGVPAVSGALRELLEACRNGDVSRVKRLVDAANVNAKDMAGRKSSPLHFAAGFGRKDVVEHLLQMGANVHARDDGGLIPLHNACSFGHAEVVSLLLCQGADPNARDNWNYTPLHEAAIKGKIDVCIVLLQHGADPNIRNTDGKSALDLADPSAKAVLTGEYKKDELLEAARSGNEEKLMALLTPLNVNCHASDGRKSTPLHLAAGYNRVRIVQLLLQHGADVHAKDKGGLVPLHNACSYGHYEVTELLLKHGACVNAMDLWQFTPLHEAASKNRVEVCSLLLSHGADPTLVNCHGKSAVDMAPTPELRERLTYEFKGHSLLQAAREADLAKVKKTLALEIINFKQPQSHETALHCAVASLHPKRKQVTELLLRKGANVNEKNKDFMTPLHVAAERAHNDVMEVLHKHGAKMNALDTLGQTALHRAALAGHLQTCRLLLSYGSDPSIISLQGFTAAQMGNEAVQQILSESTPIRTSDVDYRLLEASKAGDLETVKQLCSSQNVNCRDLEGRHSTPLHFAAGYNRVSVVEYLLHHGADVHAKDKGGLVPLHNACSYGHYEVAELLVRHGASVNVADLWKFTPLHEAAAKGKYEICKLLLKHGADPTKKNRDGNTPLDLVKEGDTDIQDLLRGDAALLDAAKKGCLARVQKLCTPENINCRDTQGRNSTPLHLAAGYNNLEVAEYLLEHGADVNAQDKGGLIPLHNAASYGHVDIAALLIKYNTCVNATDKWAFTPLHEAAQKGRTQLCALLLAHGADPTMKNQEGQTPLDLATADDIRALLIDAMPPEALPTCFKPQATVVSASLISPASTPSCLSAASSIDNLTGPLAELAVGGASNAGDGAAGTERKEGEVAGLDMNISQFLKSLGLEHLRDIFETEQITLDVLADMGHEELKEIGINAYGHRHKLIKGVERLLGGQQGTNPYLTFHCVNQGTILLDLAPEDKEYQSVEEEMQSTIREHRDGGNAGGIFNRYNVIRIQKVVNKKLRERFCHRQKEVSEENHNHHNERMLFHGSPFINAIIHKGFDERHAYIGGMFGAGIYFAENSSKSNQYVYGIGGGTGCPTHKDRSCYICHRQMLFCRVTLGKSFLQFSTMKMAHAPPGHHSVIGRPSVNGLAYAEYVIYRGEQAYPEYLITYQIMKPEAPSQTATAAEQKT
Nature of the experiment: Modified TNKS1 Assay 2 (auto-parsylation, [3H]-NAD+ SPA). In kind it is biochemical. As to conditions: 6 nM TNKS1, 96 well.
The IC50 is the midpoint of a concentration-inhibition curve. Consider `CNC(=O)c1[nH]c(C(C)C)nc1C(=O)Nc1ccc(NC(=O)c2ccc(F)cc2Cl)cc1` [Example 106, N^4-{4-[(2-chloro-4-fluorobenzoyl)amino]phenyl}-2-isopropyl-N^5-methyl-1H-imidazole-4,5-dicarboxamide], for which the IC50 was over 10000 nM.
In the case of `COC(=O)c1nc[nH]c1C(=O)Nc1ccc(NC(=O)c2ccccc2Cl)c(C)c1` [Example 86, methyl-5-({4-[(2-chlorobenzoyl)amino]-3-methylphenyl}carbamoyl)-1H-imidazole-4-carboxylate] it was 2600 nM.
In turn, `CN(C)CCNC(=O)c1nc[nH]c1C(=O)Nc1ccc(NC(=O)c2ccccc2Cl)nc1` [Example 113, N^5-{6-[(2-chlorobenzoyl)amino]pyridin-3-yl}-N^4-[2-(dimethylamino)ethyl]-1H-imidazole-4,5-dicarboxamide] returned an IC50 of 20 nM.
In the case of `CNC(=O)c1nc[nH]c1C(=O)Nc1ccc(NC(=O)c2ccc(F)cc2Cl)c(OC)c1` [Example 95, N^5-{4-[(2-chloro-4-fluorobenzoyl)amino]-3-methoxyphenyl}-N^4-methyl-1H-imidazole-4,5-dicarboxamide] it was 80 nM; in that of `COC(=O)c1nc[nH]c1C(=O)Nc1ccc(NC(=O)c2ccc(F)cc2Cl)c(OC)c1` [Example 94, methyl 5-({4-[(2-chloro-4-fluorobenzoyl)amino]-3-methoxyphenyl}carbamoyl)-1H-imidazole-4-carboxylate], 440 nM; in that of `COc1cc(NC(=O)c2[nH]cnc2C(=O)NCCN(C)C)ccc1NC(=O)c1ccccc1Cl` [Example 100, N^5-{4-[(2-chlorobenzoyl)amino]-3-methoxyphenyl}-N^4-[2-(dimethylamino)ethyl]-1H-imidazole-4,5-dicarboxamide], 50 nM.
`COC(=O)c1nc[nH]c1C(=O)Nc1ccc(NC(=O)c2ccc(F)cc2)c(OC)c1` [Example 102, methyl 5-({4-[(4-fluorobenzoyl)amino]-3-methoxyphenyl}carbamoyl)-1H-imidazole-4-carboxylate] had an IC50 of over 10000 nM.
In the case of `COc1cc(NC(=O)c2[nH]cnc2C(=O)NCCN(C)C)ccc1NC(=O)c1ccc(F)cc1Cl` [Example 96, N^5-{4-[(2-chloro-4-fluorobenzoyl)amino]-3-methoxyphenyl}-N^4-[2-(dimethylamino)ethyl]-1H-imidazole-4,5-dicarboxamide] it was 30 nM; in that of `Cc1cc(NC(=O)c2[nH]cnc2C(=O)NCCN2CCCCC2)ccc1NC(=O)c1ccccc1Cl` [Example 89, N^5-{4-[(2-chlorobenzoyl)amino]-3-methylphenyl}-N^4-[2-(piperidin-1-yl)ethyl]-1H-imidazole-4,5-dicarboxamide], 30 nM; in that of `COC(=O)c1nc[nH]c1C(=O)Nc1ccc(NC(=O)c2ccccc2Cl)c(OC)c1` [Example 98, methyl 5-({4-[(2-chlorobenzoyl)amino]-3-methoxyphenyl}carbamoyl)-1H-imidazole-4-carboxylate], 340 nM.
For `CNC(=O)c1nc[nH]c1C(=O)Nc1ccc(NC(=O)c2ccccc2Cl)nc1` [Example 112, N^5-{6-[(2-chlorobenzoyl)amino]pyridin-3-yl}-N^4-methyl-1H-imidazole-4,5-dicarboxamide] the value was 250 nM; for `COc1cc(NC(=O)c2[nH]cnc2C(=O)NCCN2CCCCC2)ccc1NC(=O)c1ccc(F)cc1Cl` [Example 97, N^5-{4-[(2-chloro-4-fluorobenzoyl)amino]-3-methoxyphenyl}-N^4-[2-(piperidin-1-yl)ethyl]-1H-imidazole-4,5-dicarboxamide], 60 nM.
